Values joined by “and” are separate entries in the source; they are usually repeats but may differ in a detail not shown here. Identical values can stand only once.
Experiments:
[1] = Cleavage of the 3′-O-nitro group with cysteamine-NaOH; format: physicochemical; details: aqueous cysteamine-NaOH (pH 9.0), 1.0 to 2.0 M cysteamine, after 5 minutes at 50° C.
Protocol: 10 to 100 nmol of 3′-O-nitro-thymidine 2 were dissolved in an aqueous solution of cysteamine-NaOH (pH 9.0) to obtain a final nucleoside concentration of 0.17 to 1.7 nmol/μL and a final cysteamine concentration of 1.0 to 2.0 M. Reaction control was performed via analytical reversed-phase chromatography using 0.1 M triethylammonium acetate (pH 7.0)/acetonitrile gradient as eluent.

[2] = target: T1, Therminator II DNA polymerase (Thermococcus sp., UniProt Q56366, A485L/D141A/E143A/Y409V); format: biochemical
T1 construct: purchased New England Biolabs
T1 sequence (Q56366 1-775 D141A/E143A/Y409V/A485L): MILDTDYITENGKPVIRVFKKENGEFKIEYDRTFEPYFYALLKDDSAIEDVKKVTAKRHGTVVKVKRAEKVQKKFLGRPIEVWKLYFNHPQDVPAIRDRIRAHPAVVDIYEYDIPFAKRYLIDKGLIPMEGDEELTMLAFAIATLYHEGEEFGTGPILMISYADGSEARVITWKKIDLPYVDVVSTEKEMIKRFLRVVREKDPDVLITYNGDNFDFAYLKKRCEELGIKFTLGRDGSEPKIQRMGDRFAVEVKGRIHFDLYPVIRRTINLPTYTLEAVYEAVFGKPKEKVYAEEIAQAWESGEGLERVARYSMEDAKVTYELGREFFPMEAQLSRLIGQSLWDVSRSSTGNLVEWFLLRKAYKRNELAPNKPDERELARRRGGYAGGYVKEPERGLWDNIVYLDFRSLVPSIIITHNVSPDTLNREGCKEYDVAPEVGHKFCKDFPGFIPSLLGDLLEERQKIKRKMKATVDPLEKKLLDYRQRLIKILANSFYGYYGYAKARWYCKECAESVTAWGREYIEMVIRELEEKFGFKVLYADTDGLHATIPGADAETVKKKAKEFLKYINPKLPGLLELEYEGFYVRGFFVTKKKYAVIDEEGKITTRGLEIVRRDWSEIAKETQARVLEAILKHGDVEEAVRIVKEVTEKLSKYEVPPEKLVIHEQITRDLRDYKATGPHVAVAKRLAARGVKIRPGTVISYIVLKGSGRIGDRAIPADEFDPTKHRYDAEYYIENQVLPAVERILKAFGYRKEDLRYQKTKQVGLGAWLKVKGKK

| SMILES | cleavage of the nitrate group [1] | acceptance as substrate by Therminator II DNA polymerase [2] | incorporation by Therminator II DNA polymerase [2] | primer + dNTP MWfound [2] |
| --- | --- | --- | --- | --- |
| Cc1cn([C@H]2C[C@H](O[N+](=O)[O-])[C@@H](CO)O2)c(=O)[nH]c1=O [Compound 2, 3′-O-Nitro-β-D-thymidine] | Quantitative cleavage | – | – | – |
| Cc1cn([C@H]2C[C@H](O[N+](=O)[O-])[C@@H](COP(=O)([O-])OP(=O)([O-])OP(=O)([O-])[O-])O2)c(=O)[nH]c1=O.[Na+].[Na+].[Na+].[Na+] [Compound 3, 3′-O-Nitro-β-D-thymidine 5′-triphosphate, tetrasodium salt] | – | accepted as substrates | incorporated efficiently | 5108.2 DA and 5108.1 DA and 5108.3 DA and 5108.4 DA |
